Measurements published in patent US20040242542A1, “Compositions and methods for inducing CD81 dependent antiproliferation and for treating hepatitis C and other disorders” (The Regents of the University of California, priority 2003, published 2004).
pIC50: −log10 of the molar value.

How the values were obtained:
[1] = system: CD81-enriched cell lines (astrocyte) vs. CD81-deficient cell lines (C6 glioma); test: Antiproliferation of CD81-enriched astrocytes vs. CD81-deficient C6 glioma cells; assay type: cell-based; conditions: for astrocyte-selective antiproliferation: concentration range of 0.1 to 10 μM, astrocytes relative to CD81-deficient cell lines
Text: Further in accordance with the present invention, there are provided methods for synthesis of amantadine analogues by appending primary amines to 1-boraadamantane to evaluate such compounds for CD81 dependent antiproliferation of CD81-enriched cell lines (astrocyte) vs. CD81-deficient cell lines (C6 glioma). Specific details of the synthetic methods of the present invention as well as related data is now published in Wagner, Carl E. et al., Synthesis of-1-Boraadamantaneamine Derivatives with Selective Astrocyte vs C6 Glioma Antiproliferative Activity. A Novel Class of Anti-Hepatitis C Agents with Potential to Bind CD81, J.Med.Chem., Vol.46,2823-2833 (2003) and Wagner, Carl E., Syntheis and First Molecular Structure of a Bis-2-spiro-1boraadamantane Dirivative, Organic Letters, Vol. 6, No. 3, 313-316 (2004), copies of which are filed herewith and the entireties of which are expressly incorporated herein by reference.
The amantadine analogues of the present invention that bind to and activate CD81 may have the potential to prevent or treat HCV infections. Each compound's potential for preventive and therapeutic activity stems from the compound's potential to block viral attachment, virus-cell fusion or virus entry into host cells, or similarly counter potential mechanisms of HCV immune evasion. Out of a library of over 500 compounds including randomly selected small molecules and rationally designed small molecules, only the 1-boraadamantane amine compounds display a significant antiproliferative effect on the CD81-enriched astrocytes relative to the CD81-deficient cell lines. […] Additionally, structurally similar adamantane analogues to the active primary amine 1-boraadamantane complexes identified in this assay were synthesized for testing.
A variety of 1-boraadamatane amine complexes were synthesized by stoichiometric addition of a primary amine to 1-boraadamantane·THF. These complexes were subsequently evaluated for an antiproliferative effect on CD81-enriched cell lines to provide evidence for binding and activation of the CD81 receptor. Additional amantidine analogues structurally similar to the 1-boraadamantane amine complexes were also synthesized.

[2] = target: α4 β1/VCAM cell line (Homo sapiens, UniProt P05556+P13612); conditions: reported in the literature; read-out: IC50 as antagonist for α4 β1/VCAM; cited from earlier work
Sequence of α4 β1/VCAM cell line (P13612 34-1032): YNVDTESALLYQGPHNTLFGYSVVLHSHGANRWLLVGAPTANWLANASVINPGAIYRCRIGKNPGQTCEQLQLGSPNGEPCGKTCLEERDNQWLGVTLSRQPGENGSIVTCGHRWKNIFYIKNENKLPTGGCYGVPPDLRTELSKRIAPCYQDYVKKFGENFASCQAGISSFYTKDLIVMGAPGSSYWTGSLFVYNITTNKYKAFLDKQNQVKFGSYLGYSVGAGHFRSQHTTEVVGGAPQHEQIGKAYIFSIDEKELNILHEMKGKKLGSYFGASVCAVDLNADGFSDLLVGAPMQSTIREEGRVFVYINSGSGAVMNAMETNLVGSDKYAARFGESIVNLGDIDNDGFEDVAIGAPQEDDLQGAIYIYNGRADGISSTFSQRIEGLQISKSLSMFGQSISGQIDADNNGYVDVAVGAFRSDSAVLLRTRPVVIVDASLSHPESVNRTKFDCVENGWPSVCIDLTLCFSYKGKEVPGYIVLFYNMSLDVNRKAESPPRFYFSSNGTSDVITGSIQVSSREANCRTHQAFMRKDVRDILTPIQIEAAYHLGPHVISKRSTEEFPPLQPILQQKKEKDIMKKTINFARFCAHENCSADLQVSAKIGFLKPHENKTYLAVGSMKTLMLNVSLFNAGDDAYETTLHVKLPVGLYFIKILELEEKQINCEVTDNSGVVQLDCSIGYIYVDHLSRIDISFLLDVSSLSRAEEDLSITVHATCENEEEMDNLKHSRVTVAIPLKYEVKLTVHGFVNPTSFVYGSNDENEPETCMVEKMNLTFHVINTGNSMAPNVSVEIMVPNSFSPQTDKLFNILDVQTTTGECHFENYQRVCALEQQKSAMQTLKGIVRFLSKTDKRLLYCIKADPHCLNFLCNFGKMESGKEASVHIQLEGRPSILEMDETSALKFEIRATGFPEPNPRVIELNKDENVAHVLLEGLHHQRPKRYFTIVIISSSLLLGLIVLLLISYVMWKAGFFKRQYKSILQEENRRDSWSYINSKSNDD
Sequence of α4 β1/VCAM cell line (P05556 21-798): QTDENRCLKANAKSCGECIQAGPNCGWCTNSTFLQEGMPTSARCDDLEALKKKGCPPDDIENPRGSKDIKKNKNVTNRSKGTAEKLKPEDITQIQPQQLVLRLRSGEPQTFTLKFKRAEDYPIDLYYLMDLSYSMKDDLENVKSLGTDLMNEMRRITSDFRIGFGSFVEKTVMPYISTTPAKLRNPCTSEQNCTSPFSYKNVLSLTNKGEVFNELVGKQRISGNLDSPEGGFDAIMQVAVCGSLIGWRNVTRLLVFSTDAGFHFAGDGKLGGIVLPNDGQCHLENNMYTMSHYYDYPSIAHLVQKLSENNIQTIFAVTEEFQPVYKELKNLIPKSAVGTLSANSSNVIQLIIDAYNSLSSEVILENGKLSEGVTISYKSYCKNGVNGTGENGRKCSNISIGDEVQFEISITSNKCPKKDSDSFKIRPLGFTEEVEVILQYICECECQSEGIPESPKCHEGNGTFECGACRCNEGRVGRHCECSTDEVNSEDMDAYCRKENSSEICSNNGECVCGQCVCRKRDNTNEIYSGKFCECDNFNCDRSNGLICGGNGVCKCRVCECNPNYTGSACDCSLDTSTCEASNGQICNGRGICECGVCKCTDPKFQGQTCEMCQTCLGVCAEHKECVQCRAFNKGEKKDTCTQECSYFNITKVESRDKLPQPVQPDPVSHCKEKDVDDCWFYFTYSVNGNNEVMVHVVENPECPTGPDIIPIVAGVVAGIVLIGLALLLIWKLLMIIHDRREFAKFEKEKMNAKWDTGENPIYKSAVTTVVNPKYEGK

Molecule	astrocyte-selective antiproliferation [1]	pIC50 [2]	further results
1-boraadamantane 1-aminoadamantane complex [Complex 1]			inhibiting the proliferation of the astrocyte cell line (ranking) ([1]; cell based assay, astrocyte cell line): most active compounds
O=C(O)[C@H](Cc1ccccc1)NC(=O)C12CC3CC(CC(C3)C1)C2 [Complex 15]	astrocyte-selective antiproliferation		antiproliferative character (ranking) ([1]; 0.1 to 10 μM range of concentration): greatest antiproliferative character
CC(C)C[C@H](NC(=O)C12CC3CC(CC(C3)C1)C2)C(=O)O [Complex 16]	astrocyte-selective antiproliferation		
COC(=O)C(CSSCC(NC(=O)C12CC3CC(CC(C3)C1)C2)C(=O)OC)NC(=O)C12CC3CC(CC(C3)C1)C2 [Compound 25, N,N-diadamantylcarbonyl-L-cystine methyl ester]		< 3.10	
O=C(O)C(CSSCC(NC(=O)C12CC3CC(CC(C3)C1)C2)C(=O)O)NC(=O)C12CC3CC(CC(C3)C1)C2 (stereo not shown) [Compound 26]		5.14	
Cl.NC12CC3CC(CC(C3)C1)C2 [amantadine, 1-aminoadamantane hydrochloride, reference compound]			reduction of astrocyte proliferation ([1]; at high concentrations (>100 _M)): only slightly reduces astrocyte proliferation
